Measurements published in patent publication US12723063B2, “GIPR-agonist compounds” (Eli Lilly and Company, priority 2019, dated 2026).
*1 amine or outer side, *2 acyl side, *3 side chain or, on linkers, in order; H or OH if unused. Where a SMILES comes first, the peptide text is derived from it. Side-chain parts run from the residue outwards. [ ]: non-standard residue; d: D form. The star is where a group is joined. C20 diacid = O=C(O)CCCCCCCCCCCCCCCCCCC(=O)*; γGlu = O=C(O)[C@H](CCC(=O)[*:2])N[*:1]; 4Pal = N[C@@H](Cc1ccncc1)C(=O)O; αMeL = CC(C)C[C@](C)(N)C(=O)O; Iva = CC[C@](C)(N)C(=O)O; AEEA = NCCOCCOCC(=O)O; Aib = CC(C)(N)C(=O)O

What was measured:
human GcgR = target: T1, human GcgR (Homo sapiens, UniProt P47871); assay: [125I]-Glucagon binding, SPA with WGA beads, 0.1% bacitracin; conditions: geometric mean, read-out: hGcgR Ki
T1 construct: expressed in transfected cells; crude membranes
T1 sequence (P47871 26-477): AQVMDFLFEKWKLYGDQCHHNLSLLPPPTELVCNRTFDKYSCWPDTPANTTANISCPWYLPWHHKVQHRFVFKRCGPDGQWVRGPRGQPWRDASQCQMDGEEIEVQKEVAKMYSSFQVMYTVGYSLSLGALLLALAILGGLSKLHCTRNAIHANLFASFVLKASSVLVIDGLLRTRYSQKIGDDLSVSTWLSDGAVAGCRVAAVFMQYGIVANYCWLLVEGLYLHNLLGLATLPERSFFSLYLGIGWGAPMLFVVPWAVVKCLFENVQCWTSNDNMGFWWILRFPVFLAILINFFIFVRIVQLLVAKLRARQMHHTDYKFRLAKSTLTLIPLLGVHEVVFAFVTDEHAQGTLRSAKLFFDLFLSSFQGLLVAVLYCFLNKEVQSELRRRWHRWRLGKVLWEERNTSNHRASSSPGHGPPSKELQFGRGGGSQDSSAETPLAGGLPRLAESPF
How it was run: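 SPA competition binding with WGA beads on crude membranes from HEK293 cells stably expressing hGcgR. Buffer: 25 mM HEPES pH 7.4, 2.5 mM CaCl2, 1 mM MgCl2, 0.1% bacitracin, 0.003% Tween-20; 10-point 3-fold dilutions, NSB with 1 μM Gcg.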

[1] = target: T2, human GLP-1 receptor (GLP-1R) (Homo sapiens, UniProt P43220); assay: cAMP functional assay (HTRF) in HEK293 cells in presence of 0.1% casein; assay type: cell-based; conditions: HEK293 cells expressing human GLP-1R, geometric mean, read-out: hGLP1R cAMP Rel EC50 nM (SEM, n)
T2 construct: expressed in transfected cells; host or cells: HEK293
T2 sequence (P43220 24-463): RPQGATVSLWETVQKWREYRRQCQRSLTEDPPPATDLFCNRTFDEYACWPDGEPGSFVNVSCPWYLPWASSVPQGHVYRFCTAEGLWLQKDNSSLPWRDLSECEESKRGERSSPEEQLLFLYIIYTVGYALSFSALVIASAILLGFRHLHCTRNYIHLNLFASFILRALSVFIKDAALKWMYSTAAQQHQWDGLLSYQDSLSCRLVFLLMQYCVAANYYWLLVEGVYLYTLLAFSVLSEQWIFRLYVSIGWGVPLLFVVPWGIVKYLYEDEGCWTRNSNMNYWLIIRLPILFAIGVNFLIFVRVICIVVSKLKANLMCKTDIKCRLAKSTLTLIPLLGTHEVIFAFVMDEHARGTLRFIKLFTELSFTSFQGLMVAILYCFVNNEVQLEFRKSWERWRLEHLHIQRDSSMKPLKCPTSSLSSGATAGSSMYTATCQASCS

human GLP-1R = target: T3, human GLP-1R (Homo sapiens, UniProt P43220); assay: [125I]-GLP-1 binding, SPA with WGA beads, 0.1% bacitracin; conditions: geometric mean, read-out: hGLP1R Ki
T3 construct: expressed in transfected cells; crude membranes
T3 sequence (P43220 24-463): as above
How it was run: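 Binding buffer was 25 mM HEPES pH 7.4 with 2.5 mM CaCl2, 1 mM MgCl2, 0.1% (w/v) bacitracin, 0.003% Tween-20 and EDTA-free protease inhibitors. Four-parameter regression gave IC50, converted to Ki (geometric mean, SEM, n independent days).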

Structure (SMILES) | Ki (human GcgR) [nM] | EC50 [1] [nM] | Ki (human GLP-1R) [nM]
CC[C@H](C)[C@H](NC(=O)[C@H](CO)NC(=O)[C@H](Cc1ccc(O)cc1)NC(=O)[C@H](CC(=O)O)NC(=O)[C@H](CO)NC(=O)[C@@H](NC(=O)[C@](C)(CC)NC(=O)[C@@H](NC(=O)CNC(=O)[C@H](CCC(=O)O)NC(=O)C(C)(C)NC(=O)[C@@H](N)Cc1ccc(O)cc1)[C@@H](C)O)[C@@H](C)CC)C(=O)N[C@@](C)(CC(C)C)C(=O)N[C@@H](CC(C)C)C(=O)N[C@@H](CC(=O)O)C(=O)N[C@@H](CCCCN)C(=O)N[C@@H](CCCCNC(=O)COCCOCCNC(=O)COCCOCCNC(=O)CC[C@H](NC(=O)CCCCCCCCCCCCCCCCCCC(=O)O)C(=O)O)C(=O)N[C@@H](Cc1c[nH]cn1)C(=O)N[C@@H](CCC(N)=O)C(=O)NC(C)(C)C(=O)N[C@@H](CC(=O)O)C(=O)N[C@@H](Cc1ccccc1)C(=O)N[C@H](C(=O)N[C@@H](CCC(=O)O)C(=O)N[C@@H](Cc1ccncc1)C(=O)N[C@@H](CC(C)C)C(=O)N[C@@H](CC(C)C)C(=O)N[C@@H](C)C(=O)NCC(=O)NCC(=O)N1CCC[C@H]1C(=O)N[C@@H](CO)C(=O)N[C@@H](CO)C(=O)NCC(=O)N[C@@H](C)C(=O)N1CCC[C@H]1C(=O)N1CCC[C@H]1C(=O)N1CCC[C@H]1C(=O)N[C@@H](CO)C(N)=O)C(C)C [Example 55] (H-Y[Aib]EGT[Iva]ISDYSI[αMeL]LDKK([AEEA-AEEA-γGlu-C20 diacid])HQ[Aib]DFVE[4Pal]LLAGGPSSGAPPPS-NH2) | > 960 | > 5000 | 262
CC[C@H](C)[C@H](NC(=O)[C@H](Cc1ccccc1)NC(=O)[C@@H](NC(=O)CNC(=O)[C@H](CCC(=O)O)NC(=O)C(C)(C)NC(=O)[C@@H](N)Cc1ccc(O)cc1)[C@@H](C)O)C(=O)N[C@@H](CO)C(=O)N[C@@H](CC(=O)O)C(=O)N[C@@H](Cc1ccc(O)cc1)C(=O)N[C@@H](CO)C(=O)N[C@H](C(=O)N[C@@](C)(CC(C)C)C(=O)N[C@@H](CC(C)C)C(=O)N[C@@H](CC(=O)O)C(=O)N[C@@H](CCCCN)C(=O)N[C@@H](CCCCNC(=O)COCCOCCNC(=O)COCCOCCNC(=O)CC[C@H](NC(=O)CCCCCCCCCCCCCCCCCCC(=O)O)C(=O)O)C(=O)N[C@@H](Cc1c[nH]cn1)C(=O)N[C@@H](CCC(N)=O)C(=O)NC(C)(C)C(=O)N[C@@H](CC(=O)O)C(=O)N[C@@](C)(Cc1ccccc1)C(=O)N[C@H](C(=O)N[C@@H](CCC(=O)O)C(=O)N[C@@H](Cc1ccncc1)C(=O)N[C@@H](CC(C)C)C(=O)N[C@@H](CC(C)C)C(=O)N[C@@H](C)C(=O)NCC(=O)NCC(=O)N1CCC[C@H]1C(=O)N[C@@H](CO)C(=O)N[C@@H](CO)C(=O)NCC(=O)N[C@@H](C)C(=O)N1CCC[C@H]1C(=O)N1CCC[C@H]1C(=O)N1CCC[C@H]1C(=O)N[C@@H](CO)C(N)=O)C(C)C)[C@@H](C)CC [Example 56] | 193 | > 5000 | 530
CC[C@H](C)[C@H](NC(=O)[C@H](Cc1ccccc1)NC(=O)[C@@H](NC(=O)CNC(=O)[C@H](CCC(=O)O)NC(=O)C(C)(C)NC(=O)[C@@H](N)Cc1ccc(O)cc1)[C@@H](C)O)C(=O)N[C@@H](CO)C(=O)N[C@@H](CC(=O)O)C(=O)N[C@@H](Cc1ccc(O)cc1)C(=O)N[C@@H](CO)C(=O)N[C@H](C(=O)N[C@@](C)(CC(C)C)C(=O)N[C@@H](CC(C)C)C(=O)N[C@@H](CC(=O)O)C(=O)N[C@@H](CCCCN)C(=O)N[C@@H](CCCCNC(=O)COCCOCCNC(=O)COCCOCCNC(=O)CC[C@H](NC(=O)CCCCCCCCCCCCCCCCCCC(=O)O)C(=O)O)C(=O)N[C@@H](Cc1c[nH]cn1)C(=O)N[C@@H](CCC(N)=O)C(=O)NC(C)(C)C(=O)N[C@@H](CCC(=O)O)C(=O)N[C@@H](Cc1ccccc1)C(=O)N[C@H](C(=O)N[C@@H](CCC(=O)O)C(=O)N[C@@H](Cc1ccncc1)C(=O)N[C@@H](CC(C)C)C(=O)N[C@@H](CC(C)C)C(=O)N[C@@H](C)C(=O)N[C@@H](CCC(N)=O)C(=O)NCC(=O)N1CCC[C@H]1C(=O)N[C@@H](CO)C(=O)N[C@@H](CO)C(=O)NCC(=O)N[C@@H](C)C(=O)N1CCC[C@H]1C(=O)N1CCC[C@H]1C(=O)N1CCC[C@H]1C(=O)N[C@@H](CO)C(N)=O)C(C)C)[C@@H](C)CC [Example 57] (H-Y[Aib]EGTFISDYSI[αMeL]LDKK([AEEA-AEEA-γGlu-C20 diacid])HQ[Aib]EFVE[4Pal]LLAQGPSSGAPPPS-NH2) | 422 | > 5000 | 280
CC[C@H](C)[C@H](NC(=O)[C@H](Cc1ccccc1)NC(=O)[C@@H](NC(=O)CNC(=O)[C@H](CCC(=O)O)NC(=O)C(C)(C)NC(=O)[C@@H](N)Cc1ccc(O)cc1)[C@@H](C)O)C(=O)N[C@@H](CO)C(=O)N[C@@H](CC(=O)O)C(=O)N[C@@H](Cc1ccc(O)cc1)C(=O)N[C@@H](CO)C(=O)N[C@H](C(=O)N[C@@](C)(CC(C)C)C(=O)N[C@@H](CC(C)C)C(=O)N[C@@H](CC(=O)O)C(=O)N[C@@H](CCCCN)C(=O)N[C@@H](CCCCNC(=O)COCCOCCNC(=O)COCCOCCNC(=O)CC[C@H](NC(=O)CCCCCCCCCCCCCCCCCCC(=O)O)C(=O)O)C(=O)N[C@@H](Cc1c[nH]cn1)C(=O)N[C@@H](CCC(N)=O)C(=O)NC(C)(C)C(=O)N[C@@H](CCC(=O)O)C(=O)N[C@@H](Cc1ccccc1)C(=O)N[C@H](C(=O)N[C@@H](CCC(=O)O)C(=O)N[C@@H](Cc1ccncc1)C(=O)N[C@@H](CC(C)C)C(=O)N[C@@H](CC(C)C)C(=O)N[C@@H](C)C(=O)N[C@H](C(=O)NCC(=O)N1CCC[C@H]1C(=O)N[C@@H](CO)C(=O)N[C@@H](CO)C(=O)NCC(=O)N[C@@H](C)C(=O)N1CCC[C@H]1C(=O)N1CCC[C@H]1C(=O)N1CCC[C@H]1C(=O)N[C@@H](CO)C(N)=O)[C@@H](C)O)C(C)C)[C@@H](C)CC [Example 58] (H-Y[Aib]EGTFISDYSI[αMeL]LDKK([AEEA-AEEA-γGlu-C20 diacid])HQ[Aib]EFVE[4Pal]LLATGPSSGAPPPS-NH2) | 418 | > 5000 | 459
CC[C@H](C)[C@H](NC(=O)[C@H](Cc1ccccc1)NC(=O)[C@@H](NC(=O)CNC(=O)[C@H](CCC(=O)O)NC(=O)C(C)(C)NC(=O)[C@@H](N)Cc1ccc(O)cc1)[C@@H](C)O)C(=O)N[C@@H](CO)C(=O)N[C@@H](CC(=O)O)C(=O)N[C@@H](Cc1ccc(O)cc1)C(=O)N[C@@H](CO)C(=O)N[C@H](C(=O)N[C@@](C)(CC(C)C)C(=O)N[C@@H](CC(C)C)C(=O)N[C@@H](CC(=O)O)C(=O)N[C@@H](CCCCN)C(=O)N[C@@H](CCCCNC(=O)COCCOCCNC(=O)COCCOCCNC(=O)CC[C@H](NC(=O)CCCCCCCCCCCCCCCCCCC(=O)O)C(=O)O)C(=O)N[C@@H](Cc1c[nH]cn1)C(=O)N[C@@H](CCC(N)=O)C(=O)NC(C)(C)C(=O)N[C@@H](CCC(=O)O)C(=O)N[C@@H](Cc1ccccc1)C(=O)N[C@H](C(=O)N[C@@H](CCC(=O)O)C(=O)N[C@@H](Cc1ccncc1)C(=O)N[C@@H](CC(C)C)C(=O)N[C@@H](CC(C)C)C(=O)N[C@@H](C)C(=O)N[C@@H](C)C(=O)NCC(=O)N1CCC[C@H]1C(=O)N[C@@H](CO)C(=O)N[C@@H](CO)C(=O)NCC(=O)N[C@@H](C)C(=O)N1CCC[C@H]1C(=O)N1CCC[C@H]1C(=O)N1CCC[C@H]1C(=O)N[C@@H](CO)C(N)=O)C(C)C)[C@@H](C)CC [Example 59] | 230 | > 5000 | 109
